From EPA's ToxValDB 9.5 (doi:10.2903/j.efsa.2017.4976)
In brackets after ≈: the same amount, converted by molar mass.

Legend:
[1] = test system: Apis mellifera; conditions: acute, mortality
[2] = test system: Colinus virginianus; conditions: for LD50: acute, oral, mortality
[3] = test system: Daphnia magna; conditions: chronic/long-term; duration: 21 days; reproduction
[4] = test system: Elodea callitrichoides; conditions: chronic/long-term; duration: 42 days
[5] = test system: Hypoaspis aculeifer; conditions: chronic/long-term; mortality
[6] = test system: Oryctolagus sp.; conditions: reproduction developmental
[7] = test system: Pimephales promelas
[8] = test system: Rattus norvegicus; conditions: acute; oral; mortality
[9] = test system: Tagia sp.; conditions: chronic/long-term; growth

Compound: CNC1=C(c2cccc(C(F)(F)F)c2)C(=O)C(c2ccccc2)O1 (stereo not drawn) [Flurtamone]
- LD50 ([1]; dermal): > 100 µg/piece
- LD50 ([1]; oral, unspecified): > 105 µg/piece
- LD50 ([2]; diet): > 1580 mg/kg-day
- LD50 [2]: > 2530 mg/kg
- NOEL ([2]; reproduction developmental): 7.3 mg/kg-day
- NOEC [3]: 0.071 mg/L
- NOEC [4]: 0.001 mg/L
- NOEC [5]: 89 mg/kg
- NOAEL [6]: 20 mg/kg-day
- LC50 ([7]; acute, duration: 96 hours, oral, feed, mortality): 6.64 mg/L (≈ 19.9 µM)
- NOEC ([7]; chronic/long-term, growth): 0.188 mg/L
- LD50 [8]: > 5000 mg/kg-day
- NOEC [9]: 47.5 mg/kg
